The solubility is the concentration that dissolves in the medium under given conditions.

This data set is described as follows: Assay (IV) determination of solubility. The format is physicochemical. On the procedure:
ASSAY (IV)—Determination of Solubility
The polypeptide was dissolved in water at ˜500 nmol/ml and mixed 1:1 with a series of buffers (100 mM glycylglycine pH 3.0, 100 mM glycylglycine pH 4.0, 100 mM glycylglycine pH 5.0, 100 mM bistrispropane pH 6.0, 100 mM bistrispropane pH 6.5, 100 mM bistrispropane pH 7.0, 100 mM bistrispropane pH 7.5, 100 mM bistrispropane pH 8.0). After 18 hours at room temperature the samples were centrifuged and the polypeptide concentration determined by HPLC.

Setting [1] is: pH 3, pH 3.0, read-out: Solubility pH 3.0.
The mark [2] stands for this setting: pH 4, pH 4.0, 18 hours at room temperature, Table 2, read-out: Solubility pH 4.0.
Where [3] appears, read: pH 4, pH 4.0, read-out: Solubility pH 4.0.
The mark [4] stands for this setting: pH 5, pH 5.0, read-out: Solubility pH 5.0.
[5] abbreviates: pH 6, pH 6.0, read-out: Solubility pH 6.0.
Where [6] appears, read: pH 6.5, pH 6.5, read-out: Solubility pH 6.5.
[7] abbreviates: pH 7, pH 7.0, read-out: Solubility pH 7.0.
Where [8] appears, read: pH 7.5, pH 7.5, read-out: Solubility pH 7.5.
[9] abbreviates: pH 8, pH 8.0, read-out: Solubility pH 8.0.

Values after ≈ are worked out from the molar mass of the structure shown. Where two headings read alike, the source gives them in different places. Starred links: 1 amine or outer side, 2 acyl side, 3 side chain; linkers in the order of their positions; H or OH if unused. Positions of bridges follow the written chain, without caps; N, C: chain ends. Residues, ends and D or L forms follow the SMILES beside them. Groups on a side chain read outwards from the residue. *: point of attachment. C20 diacid = O=C(O)CCCCCCCCCCCCCCCCCCC(=O)*; γGlu = O=C(O)[C@H](CCC(=O)[*:2])N[*:1]; AEEA = NCCOCCOCC(=O)O

Turning to `CC[C@H](C)[C@H](NC(=O)[C@@H]1CCCN1C(=O)CNC(=O)[C@H](Cc1ccccc1)NC(=O)[C@H](CC(N)=O)NC(=O)[C@H](CCCCNC(=O)COCCOCCNC(=O)COCCOCCNC(=O)CC[C@H](NC(=O)CCCCCCCCCCCCCCCCCCC(=O)O)C(=O)O)NC(=O)[C@H](CO)NC(=O)[C@H](CO)NC(=O)[C@H](CCCNC(=N)N)NC(=O)[C@H](Cc1c[nH]cn1)NC(=O)[C@H](CC(C)C)NC(=O)[C@H](Cc1ccccc1)NC(=O)[C@H](CCC(=O)O)NC(=O)[C@H](C)NC(=O)[C@H](CC(C)C)NC(=O)[C@H](CCCNC(=N)N)NC(=O)[C@H](CCC(N)=O)NC(=O)[C@@H](NC(=O)[C@H](C)NC(=O)[C@@H]1CSSC[C@H](NC(=O)[C@@H](N)CCCNC(=N)N)C(=O)N[C@@H](CC(N)=O)C(=O)N[C@@H]([C@@H](C)O)C(=O)N[C@@H](C)C(=O)N[C@@H]([C@@H](C)O)C(=O)N1)[C@@H](C)O)C(=O)N[C@@H](CC(C)C)C(=O)N1CCC[C@H]1C(=O)N1CCC[C@H]1C(=O)N[C@H](C(=O)N[C@@H](CC(N)=O)C(=O)N[C@H](C(=O)NCC(=O)N[C@@H](CO)C(=O)N[C@@H](CC(N)=O)C(=O)N[C@H](C(=O)N[C@@H](Cc1ccc(O)cc1)C(N)=O)[C@@H](C)O)C(C)C)[C@@H](C)O` [Example 14, N-epsilon21-[2-(2-{2-[2-(2-{2-[(S)-4-Carboxy-4-(19-carboxyheptadecanoylamino)butyrylamino]ethoxy}ethoxy)acetylamino]ethoxy}ethoxy)acetyl]-[Arg1,Glu14,His17,Arg18,Lys21]-pramlintide] (H-RCNTATCATQRLAEFLHRSSK([AEEA-AEEA-γGlu-C20 diacid])NFGPILPPTNVGSNTY-NH2; disulfide 2-7), the solubility reads like this: under setting [1], above 200 µM; under setting [2], above 200 µM; under setting [3], above 200 µM; under setting [4], above 200 µM; under setting [5], 192 µM (≈ 923 µg/mL); under setting [6], 102 µM (≈ 490 µg/mL). Moreover, the solubility runs as follows: under setting [7], 13 µM (≈ 62.5 µg/mL); under setting [8], 7 µM (≈ 33.7 µg/mL); under setting [9], 47 µM (≈ 226 µg/mL).

For the molecule `CC[C@H](C)[C@H](NC(=O)[C@@H]1CCCN1C(=O)CNC(=O)[C@H](Cc1ccccc1)NC(=O)[C@H](CC(N)=O)NC(=O)[C@H](CO)NC(=O)[C@H](CO)NC(=O)[C@H](CO)NC(=O)[C@H](Cc1c[nH]cn1)NC(=O)[C@H](Cc1c[nH]cn1)NC(=O)[C@H](CC(C)C)NC(=O)[C@H](Cc1ccccc1)NC(=O)[C@H](CCC(=O)O)NC(=O)[C@H](C)NC(=O)[C@H](CC(C)C)NC(=O)[C@H](CCCNC(=N)N)NC(=O)[C@H](CCC(N)=O)NC(=O)[C@@H](NC(=O)[C@H](C)NC(=O)[C@@H]1CSSC[C@H](NC(=O)[C@H](CCCCN)NC(=O)COCCOCCNC(=O)COCCOCCNC(=O)CC[C@H](NC(=O)CCCCCCCCCCCCCCCCCCC(=O)O)C(=O)O)C(=O)N[C@@H](CC(N)=O)C(=O)N[C@@H]([C@@H](C)O)C(=O)N[C@@H](C)C(=O)N[C@@H]([C@@H](C)O)C(=O)N1)[C@@H](C)O)C(=O)N[C@@H](CC(C)C)C(=O)N1CCC[C@H]1C(=O)N1CCC[C@H]1C(=O)N[C@H](C(=O)N[C@@H](CC(N)=O)C(=O)N[C@H](C(=O)NCC(=O)N[C@@H](CO)C(=O)N[C@@H](Cc1c[nH]cn1)C(=O)N[C@H](C(=O)N[C@@H](Cc1ccc(O)cc1)C(N)=O)[C@@H](C)O)C(C)C)[C@@H](C)O` [Example 118, N-alpha-[2-(2-{2-[2-(2-{2-[(S)-4-Carboxy-4-(19-carboxyheptadecanoylamino)butyrylamino]ethoxy}ethoxy)acetylamino]ethoxy}ethoxy)acetyl]-[Glu14,His17,Ser21,His35]-pramlintide] ({C20 diacid-γGlu-AEEA-AEEA}-KCNTATCATQRLAEFLHHSSSNFGPILPPTNVGSHTY-NH2; disulfide 2-7), the solubility is, setting by setting: under setting [1], above 200 µM; under setting [2], above 200 µM; under setting [3], above 200 µM; under setting [4], above 200 µM; under setting [5], above 200 µM; under setting [6], 105 µM (≈ 498 µg/mL). Further, the solubility is, setting by setting: under setting [7], 37 µM (≈ 175 µg/mL); under setting [8], 57 µM (≈ 270 µg/mL); under setting [9], 117 µM (≈ 555 µg/mL).

Turning to `CC[C@H](C)[C@H](NC(=O)[C@@H]1CCCN1C(=O)CNC(=O)[C@H](Cc1ccccc1)NC(=O)[C@H](CC(N)=O)NC(=O)[C@H](CO)NC(=O)[C@H](CO)NC(=O)[C@H](CO)NC(=O)[C@H](Cc1c[nH]cn1)NC(=O)[C@H](Cc1c[nH]cn1)NC(=O)[C@H](CC(C)C)NC(=O)[C@H](Cc1ccccc1)NC(=O)[C@H](CCC(=O)O)NC(=O)[C@H](C)NC(=O)[C@H](CC(C)C)NC(=O)[C@H](CCCNC(=N)N)NC(=O)[C@H](CCC(N)=O)NC(=O)[C@@H](NC(=O)[C@H](C)NC(=O)[C@@H]1CSSC[C@H](NC(=O)[C@H](Cc2c[nH]cn2)NC(=O)COCCOCCNC(=O)COCCOCCNC(=O)CC[C@H](NC(=O)CCCCCCCCCCCCCCCCCCC(=O)O)C(=O)O)C(=O)N[C@@H](CC(N)=O)C(=O)N[C@@H]([C@@H](C)O)C(=O)N[C@@H](C)C(=O)N[C@@H]([C@@H](C)O)C(=O)N1)[C@@H](C)O)C(=O)N[C@@H](CC(C)C)C(=O)N1CCC[C@H]1C(=O)N1CCC[C@H]1C(=O)N[C@H](C(=O)N[C@@H](CC(N)=O)C(=O)N[C@H](C(=O)NCC(=O)N[C@@H](CO)C(=O)N[C@@H](Cc1c[nH]cn1)C(=O)N[C@H](C(=O)N[C@@H](Cc1ccc(O)cc1)C(N)=O)[C@@H](C)O)C(C)C)[C@@H](C)O` [Example 119, N-alpha-[2-(2-{2-[2-(2-{2-[(S)-4-Carboxy-4-(19-carboxyheptadecanoylamino)butyrylamino]ethoxy}ethoxy)acetylamino]ethoxy}ethoxy)acetyl]-[His1,Glu14,His17,Ser21,His35]-pramlintide] ({C20 diacid-γGlu-AEEA-AEEA}-HCNTATCATQRLAEFLHHSSSNFGPILPPTNVGSHTY-NH2; disulfide 2-7), the solubility under setting [1] was above 200 µM; the solubility under setting [2] is above 200 µM; the solubility under setting [3] was above 200 µM; the solubility under setting [4] was above 200 µM; the solubility under setting [5] stood at 32 µM (≈ 152 µg/mL); the solubility under setting [6] is 3 µM (≈ 14.3 µg/mL). Further, the solubility is, setting by setting: under setting [7], 13 µM (≈ 61.8 µg/mL); under setting [8], 114 µM (≈ 542 µg/mL); under setting [9], above 200 µM.

In the case of `CC[C@H](C)[C@H](NC(=O)[C@@H]1CCCN1C(=O)CNC(=O)[C@H](Cc1ccccc1)NC(=O)[C@H](CC(N)=O)NC(=O)[C@H](CCCCNC(=O)COCCOCCNC(=O)COCCOCCNC(=O)CC[C@H](NC(=O)CCCCCCCCCCCCCCCCCCC(=O)O)C(=O)O)NC(=O)[C@H](CO)NC(=O)[C@H](CO)NC(=O)[C@H](Cc1c[nH]cn1)NC(=O)[C@@H](NC(=O)[C@H](CC(C)C)NC(=O)[C@H](Cc1ccccc1)NC(=O)[C@H](CCC(=O)O)NC(=O)[C@H](C)NC(=O)[C@H](CC(C)C)NC(=O)[C@H](CCCNC(=N)N)NC(=O)[C@H](CCC(N)=O)NC(=O)[C@@H](NC(=O)[C@H](C)NC(=O)[C@@H]1CSSC[C@H](NC(=O)[C@@H](N)CCCCN)C(=O)N[C@@H](CC(N)=O)C(=O)N[C@@H]([C@@H](C)O)C(=O)N[C@@H](C)C(=O)N[C@@H]([C@@H](C)O)C(=O)N1)[C@@H](C)O)C(C)C)C(=O)N[C@@H](CC(C)C)C(=O)N1CCC[C@H]1C(=O)N[C@@H](CO)C(=O)N[C@H](C(=O)N[C@@H](CC(N)=O)C(=O)N[C@H](C(=O)NCC(=O)N[C@@H](CO)C(=O)N[C@@H](Cc1c[nH]cn1)C(=O)N[C@H](C(=O)N[C@@H](Cc1ccc(O)cc1)C(N)=O)[C@@H](C)O)C(C)C)[C@@H](C)O` [Example 127, N-epsilon21-[2-(2-{2-[2-(2-{2-[(S)-4-Carboxy-4-(19-carboxyheptadecanoylamino)butyrylamino]ethoxy}ethoxy)acetylamino]ethoxy}ethoxy)acetyl]-[Glu14,Lys21,Ser29,His35]-pramlintide] (H-KCNTATCATQRLAEFLVHSSK([AEEA-AEEA-γGlu-C20 diacid])NFGPILPSTNVGSHTY-NH2; disulfide 2-7), the solubility reads like this: under setting [1], above 200 µM; under setting [2], above 200 µM; under setting [3], above 200 µM; under setting [4], above 200 µM; under setting [5], above 200 µM; under setting [6], above 200 µM. Also, the solubility reads like this: (pH 7, pH 7.0, 18 hours at room temperature, Table 3, read-out: Solubility pH 7.0) above 200 µM; under setting [7], above 200 µM; under setting [8], above 200 µM; under setting [9], above 200 µM.

(Values after patent US8722849B2, “Polypeptides” (Novo Nordisk A/S, priority 2011, dated 2014).)
